# Entries after “also recorded” stand apart in the source; their conditions may differ.
# Key:
# 15-PGDH = molecular target: T1, 15-PGDH (Mus musculus, UniProt Q8VCC1); experiment: 15-PGDH kinetic assay (PicoProbe kit) in muscle lysates of treated mice; assay type: in vivo; details: aged mice, daily i.p., 1 month
# T1 construct: 15-PGDH specific enzymatic activity assayed in muscle tissues of vehicle and SW treated aged muscles; from tissue; host or cells: skeletal muscle lysates of aged C57BL/6 mice
# myofibers = experiment: Myofiber cross-sectional area and fiber typing by immunofluorescence; assay type: in vivo, mouse; details: aged mice, 1 month
# Description: We collected and prepared recipient Tibialis anterior (TA) or gastrocnemius (GA) muscle tissues for histology as previously described (5). We fixed transverse sections from muscles using 4% PFA, blocked and permeabilized using PBS/1% BSA/0.1% Triton X-100 and incubated with anti-LAMININ (Millipore, clone A5, catalog #05-206, 1:200) and then with AlexaFluor secondary Antibodies (Jackson ImmunoResearch Laboratories, 1:200) or wheat germ agglutinin-Alexa 647 conjugate (WGA, Thermo Fisher Scientific). We counterstained nuclei with DAPI (Invitrogen).
# We acquired images on a Zeiss 510 laser scanning confocal microscope (Carl Zeiss Microimaging) with 40x/0.9N.A. objective to capture multiple consecutive focal planes or using the KEYENCE BZ-X700 all-in-one fluorescence microscope (Keyence) with 20x/0.75 N.A. objectives. We analyzed the myofiber area using the Keyence Advanced Analysis Software. For cross sectional area the maximum cross sectional area of the muscle was quantified or at least 10 fields of LAMININ-stained myofiber cross-sections encompassing over 400 myofibers were captured for each mouse as above. […] The researchers performing the imaging acquisition and scoring were unaware of treatment condition given to sample groups analyzed. […]
# Images were acquired using KEYENCE BZ-X700 all in one fluorescence microscope with 20x/0.75 NA. objectives and individual fields were stitched and analyzed using Keyence Advanced Analysis Software.
# For cultured myotubes we performed fixation using 4% PFA, blocking and permeabilization using PBS/1% BSA/0.1% Triton X-100 and staining with primary antibodies anti-MYH (Thermo Fisher Scientific, catalog #14-6503-82, clone MF-20, 1:500) and then with AlexaFluor secondary Antibodies (Jackson ImmunoResearch Laboratories, 1:500). […] We acquired images using the KEYENCE BZ-X700 all-in-one fluorescence microscope (Keyence) with 20x/0.75 N.A. objectives. We analyzed the fiber area using the Keyence Advanced Analysis Software. […] The researchers performing the imaging acquisition and scoring were unaware of treatment condition given to sample groups analyzed.
# mdx4cv/mTRKO(G2) mice = experiment: Plantar flexion tetanic force in Duchenne muscular dystrophy mouse model; assay type: in vivo; details: 8 month old mice, 4 weeks of treatment
# Description: For ABT-263 treatments, 20 month old C57/B16 mice were treated with vehicle (ethanol:polyethylene glycol 400:Phosal 50 PG) or ABT-263 (in ethanol:polyethylene glycol 400:Phosal 50 PG) by oral gavage for 2 cycles of 1 week with a 2 week rest period between cycles as described previously (1). For the Duchenne muscular dystrophy (DMD) mouse model, we used 8-10 month old mdx4cv/mTRKO(G2) generated as previously described (2).
# Time and distance to exhaustion was performed as previously described (4) for SW-treated mice and their controls (FIG. 3A).
# The peak isometric torque (N·mm) of the ankle plantarflexors was assessed as previously described (8,9). Briefly, the foot of anesthetized mice was placed on a footplate attached to a servomotor (model 300C-LR; Aurora Scientific). Two Pt-Ir electrode needles (Aurora Scientific) […] subcutaneously over the tibial nerve, just posterior/posterior-medial to the knee. The ankle joint was secured at a 90° angle. The peak isometric torque was achieved by varying the current delivered to the tibial nerve at a frequency of 200 Hz and a 0.1-ms square wave pulse. We performed three tetanic measurements on each muscle, with 1 min recovery between each measurement. Data were collected with the Aurora Scientific Dynamic Muscle Data Acquisition and Analysis Software.
# [1] = test system: aged muscle transcriptome; experiment: RNA sequencing of vehicle and SW treated aged muscles; assay type: in vivo, mouse; details: SW 1 month
# Excerpt: For RNA-seq, RNA was isolated from muscle lysates using Trizol reagent (Thermoscientific) and purified using Qiagen RNAEasy kit from. Libraries were constructed from RNA with the TruSEQ RNA Library Preparation Kit v2 (Illumina) and sequenced to 30-40×10^6×75-bp reads per sample on a NextSeq 550 from the Stanford Functional Genomics Facility.
# For the RNA-Seq analysis, the sequences were aligned against the Mus musculus genome (mm9) using STAR (16). RSEM was used for calling transcripts and calculating transcripts per million (TPM) values as well as total counts (17). A counts matrix containing the number of counts for each gene and each sample was obtained. This matrix was analyzed by DESeq2 to calculate statistical analysis of significance of genes between samples (18). […] Heatmaps were generated on normalized counts and plotted on Z-score across rows using Seaborn data visualization library in python. The data reported in this paper have been deposited in the Gene Expression Omnibus (GEO) database GSE149924.
# [2] = test system: bone marrow, colon, lung, and liver; details: cited from earlier work
# T1 sequence (Q8VCC1 whole entry): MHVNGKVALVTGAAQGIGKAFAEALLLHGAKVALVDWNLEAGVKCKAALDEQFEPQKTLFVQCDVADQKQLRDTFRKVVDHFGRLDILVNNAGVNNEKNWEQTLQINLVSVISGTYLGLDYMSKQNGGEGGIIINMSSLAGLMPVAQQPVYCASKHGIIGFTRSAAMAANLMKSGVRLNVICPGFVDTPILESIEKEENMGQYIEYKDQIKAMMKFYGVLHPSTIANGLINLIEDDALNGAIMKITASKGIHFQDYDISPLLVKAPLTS
smiles,measurement,setting,value
"CCCC[S+]([O-])c1sc2nc(-c3cccs3)cc(-c3ccccc3)c2c1N (centres unmarked) [SW033291, 2-(butylsulfinyl)-4-phenyl-6-(thiophen-2-yl)thieno[2,3-b]pyridin-3-amine]",15-PGDH specific activity in muscle,15-PGDH,significantly reduced
same,cross-sectional area of glycolytic (type IIb) fibers,myofibers,increase
same,cross-sectional area of oxidative (type IIa) fibers,myofibers,increase
same,myofiber cross-sectional area,"myofibers; daily i.p., listed as SW",larger; also recorded: significantly augmented
same,increase in muscle strength compared to vehicle treated controls,mdx4cv/mTRKO(G2) mice,22%
same,Hdac4 expression,[1],diminished
same,"components of mitochondria complexes I, II, IV and V of the electron transport chain",[1],markedly increased
same,members of ubiquitin signaling pathways,[1],downregulated
same,mitochondrial pathways (KEGG/GO enrichment of upregulated genes),[1],strong enrichment
same,"expression of TGF-beta pathway genes (Mstn, Tgfb2, Acvr2a, Smad3)",[1]; listed as SW,decreased; also recorded: markedly reduced
same,increase of PGE2 levels in vivo,[2],2 fold

# — US20220304992A1, “METHODS OF REJUVENATING AGED TISSUE BY INHIBITING 15-HYDROXYPROSTAGLANDIN DEHYDROGENASE (15-PGDH)” (The Board of Trustees of the Leland Stanford Junior …, priority 2019, published 2022)
